Measured values taken from patent publication US20090298903A1, “USE OF TETRAMIC ACID DERIVATIVES FOR INSECT CONTROL” (priority 2006, published 2009).

Tests used:
Format in all cases: in vivo
Thrips tabaci [1] = assay: Example 6: onions against Thrips tabaci; conditions: population on leaves
Experimental: Plots 15 m^2 in size which are planted with onions are treated, in two replications, against Thrips tabaci. The application is effected with a knapsack sprayer which is operated with pressurized air. Here, the active substances Example (I-4), in a tank mix together with 0.2% a.s. rapeseed oil methyl ester (500 EW) and the commercial standard dimethoate and (380 EC), are tested at the specified application rates in a tank mix with 0.9% a.s. E-actipron (900 EC). The water application rate is 300 l/ha.
The test was evaluated 43 and 62 days after the treatment by scoring the destruction rate of the population on the leaves.

Rhagoletis cerasi = assay: Example 21: cherry trees against Rhagoletis cerasi; conditions: 23 d after treatment 2, larvae on fruits, Dimethoate (400 EC) 200, (I-4) (150 OD) 75 g a.s./ha/m crown level
Experimental: Cherry trees cv. “Van” which are approximately 26 years old are treated, in three replications, against Rhagoletis cerasi. The application is carried out with an atomizer. Here, the active substance Example (I-4) (150 OD) and the commercial standard dimethoate (400 EC) are applied at the specified application rates. Two applications are carried out at an interval of 6 days with a water application rate of 500 l/ha/m crown level.
The test is evaluated 23 days after treatment 2 by scoring the destruction rates of the animals (larvae) on the fruits with the aid of the Abbott formula.

Thrips tabaci [2] = assay: Example 11: dwarf beans against Thrips tabaci
Experimental: Plots approx. 26 m^2 in size which are planted with dwarf beans are treated 16 days after emergence against Thrips tabaci, in four replications. The application is carried out with a knapsack sprayer which is operated with pressurized air. Here, the active substances Example (I-2) (240 SC) (I-4) (240 SC) and Example (I-9) (240 SC), in a tank mix with 0.1% a.s. rapeseed oil methyl ester (500 EW), are tested against the commercial standard Profenofos (720 EC) at the specified application rates. The water application rate is 1000 l/ha. Two applications are carried out at an interval of 10 days.
The test is evaluated 5 and 11 days after the first treatment by scoring the destruction rate of the nymphs on the leaves.

Empoasca biguttula = assay: Example 16: aubergines against Empoasca biguttula
Experimental: Plots 10 m^2 in size which are planted with aubergines are treated, in three replications, against Empoasca biguttula. The application is carried out with a knapsack sprayer which is operated with pressurized air. Here, the active substance Example (I-4) (150 OD) is tested against the commercial standards Imidacloprid (SL 100) and Profenofos (500 EC) at the specified application rates. Two applications are carried out at an interval of 7 days. The water application rate is 750 l/ha.
The test is evaluated 2, 6 and 13 days after the first treatment by scoring the destruction rates of the animals (nymphs) on the plants.

[3] = tested on: flea beetles (Phyllotreta sp.); assay: Example 24: aubergines against flea beetles; conditions: 7 d after the last of four treatments, larvae, Imidacloprid (100 SL) 100, (I-4) (100 OD) 70, Profenofos (500 EC) 500 g a.s./ha
Experimental: Plots approx. 12 m^2 in size which are planted with aubergines cv. “DLP” are treated, in three replications, against flea beetles (Phyllotreta sp.). The application is carried out with a knapsack sprayer which is operated with pressurized air. Here, the active substance Example (I-4) (100 OD) and the commercial standards Imidacloprid (100 SL) and Profenofos (500 EC) are applied at the specified application rates. Four applications are carried out at intervals of 7, 8 and 10 days, with a water application rate of 750 l/ha.
The test is evaluated 7 days after the last treatment by scoring the destruction rate of the larvae on the plants.

Carpocapsa pomonella = assay: Example 29: apple trees against Carpocapsa pomonella, fruit damage; conditions: application rate printed as g a.s./ha: Chlorpyrifos-methyl (25 WP) 0.1, (I-4) (240 SC + 0.1% Steffes Mero) 0.012
Experimental: Approx. 15-year-old apple trees cv. “Golden Delicious” are treated, in four replications, against Carpocapsa pomonella. The application is carried out with an atomizer. Here, the active substance Example (I-4) (240 SC) in a tank mix together with 0.1% a.s. of the adjuvant Steffes Mero (rapeseed oil methyl ester) (733 1R) and the commercial standard Chlorpyrifos-methyl (25 WP) are tested at the specified application rates. The water application rate is 1052 l/ha. Two applications are carried out at an interval of 13 days.
The test is evaluated 32 days after treatment 2 by scoring the fruit damage with the aid of the Abbott formula.

[4] = tested on: apple capsid bug (Plesiocoris rugicollis); assay: Example 1B: apple trees against apple capsid bug; conditions: 37 d after treatment, larvae on twigs, Deltamethrin (EC 025) 3.75, (I-4) (150 OD) 30 g a.s./ha/m crown level
Experimental: Apple trees cv. “Holsteiner Cox” which are approximately 14 years old are treated, in 3 replications, against the apple capsid bug (Plesiocoris rugicollis). Here, the active substance Example (I-4) (150 OD) is tested at the specified application rate against the commercial standard Deltamethrin liquid (EC 025) at the specified application rate. The application is carried out with a knapsack sprayer. Here, the treatment is effected with a water application rate of 500 l/ha/m crown level.
The test is evaluated 37 days after the treatment by scoring the destruction of the larvae on the twigs with the aid of the Abbott method.

[5] = tested on: Leptinotarsa decemlineata; assay: Example 23: potatoes against Leptinotarsa decemlineata
Experimental: Plots approx. 10 m^2 in size which are planted with potatoes “Quarta” are treated, in three replications, against Leptinotarsa decemlineata. The application is carried out with a knapsack sprayer operated with pressurized air. Here, the active substance Example (I-4) (240 SC), in a tank mix together with 0.2% a.s. rapeseed oil methyl ester (500 EW) and the commercial standard Deltamethrin (100 EC), is tested at the specified application rate. The water application rate is 300 l/ha.
The test is evaluated 3, 8 and 20 days after the treatment by scoring the destruction rate of the animals (larvae) on the plants.

Ceutorhynchus napi = assay: Example 26-A: oilseed rape against Ceutorhynchus napi; conditions: 55 d after treatment, larvae, Deltamethrin (25 EC) 5, (I-4) (+ 0.2% rapeseed oil methyl ester) 72, Thiacloprid (OD 240) 72, Lambda-cyhalothrin 5 g a.s./ha
Experimental: Plots approx. 25 m^2 in size which are planted with oilseed rape cv. “Artus” are treated, in four replications, against Ceutorhynchus napi. The application is carried out with a motor-operated knapsack sprayer. Here, the active substance Example (I-4), in a tank mix with 0.2% a.s. rapeseed oil methyl ester (500 EW) and the commercial standards Deltamethrin (25 EC), lambda-cyhalothrin (S100) and Thiacloprid (OD 240), is tested at the specified application rates. The water application rate is 250 l/ha.
The test is evaluated 55 days after the treatment by scoring the destruction rate of the larvae on the plants.

Dasineura mali = assay: Example 19 a): apple trees against Dasineura mali; conditions: 59 d after treatment; larvae, apple twigs; Pirimicarb (50 WG) 125, (I-4) (100 OD) 72 g a.s./ha/m crown level
Experimental: Apple trees cv. “Elan” which are approximately 16 years old are treated, in 3 replications, against the Dasineura mali. Here, the active substance Example (I-4) (100 OD) is tested at the specified application rate against the commercial standard and Pirimicarb (50 WG) at the specified application rate. The application is carried out with a spray diffuser. Here, the treatment is effected with a water application rate of 1000 l/ha/m crown level.
The test is evaluated 59 days after the treatment by scoring the destruction of the larvae on the basis of the adults present on the twigs with the aid of the Abbott method.

[6] = tested on: oriental fruit moth (Laspeyresia molesta); assay: Example 28: peach trees against oriental fruit moth; conditions: 41 d after treatment, Pyrifroxyfen (35 WP) 123, Acetamiprid (30 SG) 168, (I-4) (150 OD) 153 g a.s./ha
Experimental: Approx. 10-year-old peach trees are treated, in four replications, against the oriental fruit moth (Laspeyresia molesta). The application is carried out with a knapsack sprayer which is operated with pressurized air. Here, the active substance (I-4) (150 OD) is tested against the commercial standards Pyriproxyfen (35 WP) and Acetamiprid (30 SG) at the specified application rates. The water application rate is 935 l/ha.
The test is evaluated 41 days after the treatment by scoring the destruction rate of the animals on the trees.

Caliothrips phaseoli = assay: Example 3: courgettes against Caliothrips phaseoli; conditions: 8 d after treatment, nymphs on 5 leaves, Endosulfan (350 EC) 525, (I-4) (240 SC + 0.1% rapeseed oil methyl ester) 72 g a.s./ha
Experimental: Plots approx. 22 m^2 in size which are planted with courgettes cv. “Italiana negra” are treated, in three replications, against Caliothrips phaseoli. The application is effected with a motor-driven knapsack sprayer. Here, the active substance Example (I-4) (240 SC), in a tank mix together with 0.1% a.s. rapeseed oil methyl ester (500 EW) and the commercial standard endosulfan (350 EC), is tested at the specified application rates. The water application rate is approx. 510 l/ha.
The test is evaluated 8 days after the treatment by scoring the destruction of the animals (nymphs) on 5 leaves.

Dasineura pyri = assay: Example 19b): pear trees against Dasineura pyri; conditions: 9 d after treatment 2, larvae in rolled leaves, Endosulfan (350 EC) 472.5, (I-4) as 240 SC + Mero (0.1% rapeseed oil methyl ester) 120 g a.s./ha/m crown level
Experimental: Fully-grown pear trees cv. “Conference” of crown height approx. 3.5 m are treated, in four replications, against Dasineura pyri. Here, the active substance Example (I-4) is tested as (150 OD) and (240 SC) together with 0.1% a.s. rapeseed oil methyl ester (Mero 733 1R) in a tank mix at the specified application rate against the commercial standard Endosulfan (350 EC) at the specified application rate. The application is carried out with a spray diffuser. Here, the treatment is effected with a water application rate of 1000 l/ha/m crown level. Two applications are carried out at an interval of 7 days.
The test is evaluated 9 days after treatment 2 by scoring the destruction rate of the larvae in the rolled leaves, using the Abbott method.

Pegomya spp. = assay: Example 17: winter wheat against Pegomya spp.; conditions: 3 days after the last of two treatments (interval 7 days), larvae, Thiacloprid (240 OD) 72, (I-4) (240 SC + 0.2% rapeseed oil methyl ester) 96 g a.s./ha
Experimental: Plots approx. 25 m^2 in size which are planted with winter wheat cv. “Capfern” are treated, in four replications, against Pegomya spp. The application is carried out with a knapsack sprayer which is operated with pressurized air. Here, the active substance Example (I-4) (240 SC), in a tank mix with 0.2% a.s. rapeseed oil methyl ester (500 EW) and the commercial standard Thiacloprid (240 OD), is tested at the specified application rates. Two applications are carried out at an interval of 7 days. The water application rate is 350 l/ha.
The test is evaluated 3 days after the last treatment by scoring the destruction rate of the larvae on the plants.

SMILES: CNC(=O)CSP(=S)(OC)OC [Dimethoate, dimethoate]
- Efficacy (% Abbott) 43 d (Thrips tabaci [1]; 43 d after treatment, Dimethoate (380 EC + 0.9% E-actipron) 380, (I-4) (+ 0.2% rapeseed oil methyl ester) 96 g a.s./ha): 64.5 % Abbott
- Efficacy (% Abbott) 62 d (Thrips tabaci [1]; 62 d after treatment, Dimethoate 380, (I-4) 96 g a.s./ha): 74.8 % Abbott
- Efficacy (% Abbott) 23 d (Rhagoletis cerasi): 100 % Abbott

SMILES: CCCSP(=O)(OCC)Oc1ccc(Br)cc1Cl (stereo not shown) [Profenofos]
- Efficacy (% Abbott) 5 d (Thrips tabaci [2]; 5 d after first treatment, nymphs on leaves, Profenofos (720 EC) 1300, (I-9) 54, (I-2) 54, (I-4) 60 g a.s./ha, 240 SC + 0.1% rapeseed oil methyl ester): 80 % Abbott
- Efficacy (% Abbott) 11 d (Thrips tabaci [2]; 11 d after first treatment (second application at 10 days), Profenofos 1300, (I-9) 54, (I-2) 54, (I-4) 60 g a.s./ha): 75 % Abbott
- Efficacy (% Abott) 2 d (Empoasca biguttula; 2 d after first treatment, nymphs, Imidacloprid (SL 100) 30, (I-4) (150 OD) 50, Profenofos (500 EC) 500 g a.s./ha, two applications, interval 7 days): 41.3 % Abott
- Efficacy (% Abott) 6 d (Empoasca biguttula; 6 d after first treatment, Imidacloprid 30, (I-4) 50, Profenofos 500 g a.s./ha): 65.1 % Abott
- Efficacy (% Abott) 13 d (Empoasca biguttula; 13 d after first treatment, Imidacloprid 30, (I-4) 50, Profenofos 500 g a.s./ha): 53.8 % Abott
- Efficacy (% Abbott) 7 d [3]: 84 % Abbott

SMILES: COP(=S)(OC)Oc1nc(Cl)c(Cl)cc1Cl [Chlorpyrifos-methyl]
- Efficacy (% Abbott) 32 d after treatment 2 (Carpocapsa pomonella): 66.7 % Abbott

SMILES: CC1(C)[C@H](C(=O)O[C@H](C#N)c2cccc(Oc3ccccc3)c2)[C@@H]1C=C(Br)Br [Deltamethrin]
- Efficacy (%) Abbott 37 d [4]: 78%
- Efficacy (% Abbott) 3 d ([5]; 3 d after treatment, larvae, Deltamethrin (100 EC) 75, (I-4) (240 SC + 0.2% rapeseed oil methyl ester) 72 g a.s./ha): 100 % Abbott
- Efficacy (% Abbott) 8 d ([5]; 8 d after treatment, Deltamethrin 75, (I-4) 72 g a.s./ha): 100 % Abbott
- Efficacy (% Abbott) 20 d ([5]; 20 d after treatment, Deltamethrin 75, (I-4) 72 g a.s./ha): 100 % Abbott
- Efficacy (% Abbott) 55 d (Ceutorhynchus napi): 77.1 % Abbott

SMILES: Cc1nc(N(C)C)nc(OC(=O)N(C)C)c1C [Pirimicarb]
- Efficacy (%) Abbott 59 d (Dasineura mali): 0%

SMILES: CC(COc1ccc(Oc2ccccc2)cc1)Oc1ccccn1 (stereo not shown) [Pyrifroxyfen, Pyriproxyfen]
- Efficacy (% Abbott) 41 d [6]: 39.0 % Abbott

SMILES: C/C(=N\C#N)N(C)Cc1ccc(Cl)nc1 [Acetamiprid]
- Efficacy (% Abbott) 41 d [6]: 35.8 % Abbott

SMILES: O=S1OCC2C(CO1)C1(Cl)C(Cl)=C(Cl)C2(Cl)C1(Cl)Cl (stereo not shown) [Endosulfan, endosulfan]
- Efficacy (% Abbott) 8 d (Caliothrips phaseoli): 67.0 % Abbott
- Efficacy (% Abbott) 9 d (Dasineura pyri): 71.6 % Abbott

SMILES: N#C/N=C1\SCCN1Cc1ccc(Cl)nc1 [Thiacloprid]
- Efficacy (% Abbott) 10 d (Pegomya spp.): 100 % Abbott
- Efficacy (% Abbott) 55 d (Ceutorhynchus napi): 52.4 % Abbott
